From patent publication US6413517B1, “Identification of broadly reactive DR restricted epitopes” (Epimmune, Inc., priority 1997, dated 2002)
Where two headings read alike, the source gives them in different places. No end group written: not given here.

Legend:
[1] = system: panel of purified HLA DR molecules; type: binding, human
DRB1*1201 (DR5w12) = target: T1, DRB1*1201 (DR5w12) (Homo sapiens, UniProt P01903+P01911, A100R/A169T/D57E/D86V/F55L/H45Y/K41T/L162R/M171V/P40S/Q125H/Q178H/Q39Y/Q99D/R42G/S66L/T262R/V114A/V67L/W38E/Y59H/Y61H/Y89S); experiment: biochemical; type: binding
T1 construct: Epstein-Barr virus (EBV) transformed homozygous cell lines were used as sources; endogenous in cells; host or cells: Herluf (EBV-transformed homozygous B cell line)

DRB1*0301 (DR3w17) [2] = target: T2, DRB1*0301 (DR3w17) (Homo sapiens, UniProt P01903+P01911, A100K/A102G/A103R/A169T/F55Y/I96L/K41T/L162R/M171V/P40S/Q125H/Q178H/Q39Y/R42S/S66N/T106N/T262R/W38E/Y61H); details: read-out: Binding Capacity (IC 50% nM) Other Alleles DR3
DRB1*0101 (DR1) = target: T3, DRB1*0101 (DR1) (Homo sapiens, UniProt P01903+P01911, A100R/D57E/F55L/F60I/F76Y/I96L/L162R/M171V/P40L/Q125E/R42F/V115G/Y59C); experiment: biochemical; type: binding
T3 construct: Epstein-Barr virus (EBV) transformed homozygous cell lines were used as sources; endogenous in cells; host or cells: LG2 (EBV-transformed homozygous B cell line)

DRB1*0802 (DR8w2) = target: T4, DRB1*0802 (DR8w2) (Homo sapiens, UniProt P01903+P01911, A100R/A103L/A169T/F76Y/H45Y/I96F/K41T/L162R/M171V/P40S/Q125H/Q178H/Q39Y/Q99D/R218S/R42G/S66Y/V115G/W38E); experiment: biochemical; type: binding
T4 construct: Epstein-Barr virus (EBV) transformed homozygous cell lines were used as sources; endogenous in cells; host or cells: OLL (EBV-transformed homozygous B cell line)

DRB1*0701 (DR7) = target: T5, DRB1*0701 (DR7) (Homo sapiens, UniProt P01903+P01911, A100R/A102G/A103Q/D57E/D86V/E43K/F76Y/K127E/L162R/M171V/P40G/Q125H/Q99D/R33Q/R42Y/R54Q/S133A/S66F/T210M/V115G/Y107V/Y59L/Y89S); experiment: biochemical; type: binding
T5 construct: Epstein-Barr virus (EBV) transformed homozygous cell lines were used as sources; endogenous in cells; host or cells: PITOUT (EBV-transformed homozygous B cell line)

DRB1*0301 (DR3w17) [3] = target: T2, DRB1*0301 (DR3w17); experiment: biochemical; details: Binding Capacity (IC50% nM) DR3
DRB1*1302 (DR6w19) = target: T6, DRB1*1302 (DR6w19) (Homo sapiens, UniProt P01903+P01911, A100E/A169T/K41T/L162R/M171V/P40S/Q125H/Q178H/Q39Y/Q99D/R42S/S66N/T262R/V115G/W38E/Y61H); experiment: biochemical; type: binding
T6 construct: Epstein-Barr virus (EBV) transformed homozygous cell lines were used as sources; the source of Class II molecules the EBV transformed homozygous cell line H0301; endogenous in cells; host or cells: H0301 (EBV-transformed homozygous B cell line)

DRB1*0401 (DR4w4) = target: T7, DRB1*0401 (DR4w4) (Homo sapiens, UniProt P01903+P01911, A100K/A169T/F76Y/I96L/K127E/L162R/M171V/N62H/P40V/Q125Y/R42H/S133A/S149N/S66Y/V115G/V209L/W38E); experiment: biochemical; type: binding
T7 construct: Epstein-Barr virus (EBV) transformed homozygous cell lines were used as sources; endogenous in cells; host or cells: PREISS (EBV-transformed homozygous B cell line)

DRB1*1501 (DR2w2b) = target: T8, DRB1*1501 (DR2w2b) (Homo sapiens, UniProt P01903+P01911); experiment: biochemical; type: binding
T8 construct: expressed in transfected cells; host or cells: transfected fibroblasts L466.1

DRB1*0405 (DR4w15) = target: T9, DRB1*0405 (DR4w15) (Homo sapiens, UniProt P01903+P01911, A100R/A169T/D86S/F76Y/I96L/K127E/L162R/M171V/N62H/P40V/Q125Y/R42H/S133A/S149N/S66Y/V115G/V209L/W38E); experiment: biochemical; type: binding
T9 construct: Epstein-Barr virus (EBV) transformed homozygous cell lines were used as sources; endogenous in cells; host or cells: KT3 (EBV-transformed homozygous B cell line)

DRB5*0101 (DR2w2a) = target: T10, DRB5*0101 (DR2w2a) (Homo sapiens, UniProt P01903+Q30154); experiment: biochemical; type: binding
T10 construct: Epstein-Barr virus (EBV) transformed homozygous cell lines were used as sources; endogenous in cells; host or cells: GM3107 (EBV-transformed homozygous B cell line)

DRB1*0901 (DR9) = target: T11, DRB1*0901 (DR9) (Homo sapiens, UniProt P01903+P01911, A100R/A103E/D57H/D86V/F55Y/F60I/F76Y/I96F/K127E/L162R/M171V/P40D/Q125H/Q99R/R33Q/R42F/S133A/S66N/T210M/V115G/W38K/Y107V/Y59G/Y89S); experiment: biochemical; type: binding
T11 construct: Epstein-Barr virus (EBV) transformed homozygous cell lines were used as sources; endogenous in cells

DRB1*1101 (DR5w11) = target: T12, DRB1*1101 (DR5w11) (Homo sapiens, UniProt P01903+P01911, A100R/A169T/A87E/I96F/K41T/L162R/M171V/P40S/Q125H/Q178H/Q39Y/Q99D/R42S/S66Y/T262R/V115G/W38E); experiment: biochemical; type: binding
T12 construct: Epstein-Barr virus (EBV) transformed homozygous cell lines were used as sources; endogenous in cells; host or cells: SWEIG (EBV-transformed homozygous B cell line)
T12 sequence (P01903 26-254, other chains not shown): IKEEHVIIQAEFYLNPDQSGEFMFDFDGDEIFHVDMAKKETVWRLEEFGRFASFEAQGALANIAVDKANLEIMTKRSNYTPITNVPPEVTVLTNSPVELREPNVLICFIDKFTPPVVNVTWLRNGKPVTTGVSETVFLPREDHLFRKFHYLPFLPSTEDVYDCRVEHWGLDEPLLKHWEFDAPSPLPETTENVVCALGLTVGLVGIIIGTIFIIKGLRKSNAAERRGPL

[4] = Binding Capacity (IC50% nM) DR5w12
[5] = read-out: Binding Capacity (IC 50% nM) Other Alleles DR5w12
[6] = Binding Capacity (IC50% nM) DR1
[7] = Binding Capacity (IC 50% nM) DR1,4,7 DRB1
[8] = Binding Capacity (IC50% nM) DR8w2
[9] = Binding Capacity (IC50% nM) DR7
[10] = read-out: Binding Capacity (IC 50% nM) DR1,4,7 DR7
[11] = Binding Capacity (IC50% nM) DR6w19
[12] = read-out: Binding Capacity (IC 50% nM) Other Alleles DR6w19
[13] = Binding Capacity (IC 50% nM) DR1,4,7 DR4w4
[14] = Binding Capacity (IC50% nM) DR4w4
[15] = Binding Capacity (IC50% nM) DR2w2b
[16] = read-out: Binding Capacity (IC 50% nM) Other Alleles DR2w2b
[17] = Binding Capacity (IC50% nM) DR4w15
[18] = Binding Capacity (IC 50% nM) Other Alleles DR4w15
[19] = Binding Capacity (IC 50% nM) Other Alleles DR2w2a
[20] = Binding Capacity (IC50% nM) DR9
[21] = read-out: Binding Capacity (IC 50% nM) Other Alleles DR9
[22] = Binding Capacity (IC50% nM) DR5w11
[23] = read-out: Binding Capacity (IC 50% nM) Other Alleles DR8w2
[24] = read-out: Binding Capacity (IC 50% nM) Other Alleles DR4w15
[25] = Binding Capacity (IC50% nM) DR2w2a
[26] = read-out: Binding Capacity (IC 50% nM) Other Alleles DR2w2a
[27] = read-out: Binding Capacity (IC 50% nM) Other Alleles DR5w11

Row | Molecule | IC50 (DRB1*1201 (DR5w12); [4]) [nM] | IC50 (DRB1*1201 (DR5w12); [5]) [nM] | IC50 (DRB1*0301 (DR3w17) [2]) [nM] | IC50 (DRB1*0101 (DR1); [6]) [nM] | IC50 (DRB1*0101 (DR1); [7]) [nM] | IC50 (DRB1*0802 (DR8w2); [8]) [nM] | IC50 (DRB1*0701 (DR7); [9]) [nM] | IC50 (DRB1*0701 (DR7); [10]) [nM] | IC50 (DRB1*0301 (DR3w17) [3]) [nM] | IC50 (DRB1*1302 (DR6w19); [11]) [nM] | IC50 (DRB1*1302 (DR6w19); [12]) [nM] | IC50 (DRB1*0401 (DR4w4); [13]) [nM] | IC50 (DRB1*1501 (DR2w2b); [15]) [nM] | IC50 (DRB1*1501 (DR2w2b); [16]) [nM] | IC50 (DRB1*0405 (DR4w15); [17]) [nM] | IC50 (DRB1*0901 (DR9); [20]) [nM] | IC50 (DRB1*0901 (DR9); [21]) [nM] | IC50 (DRB1*1101 (DR5w11); [22]) [nM] | IC50 (DRB1*0802 (DR8w2); [23]) [nM] | IC50 (DRB1*1101 (DR5w11); [27]) [nM] | further results
1 | CC[C@H](C)[C@H](NC(=O)[C@H](CO)NC(=O)[C@@H](N)CO)C(=O)N[C@H](C(=O)N[C@@H](Cc1ccccc1)C(=O)NCC(=O)N[C@@H](C)C(=O)N[C@@H](Cc1ccccc1)C(=O)N1CCC[C@H]1C(=O)N[C@@H](CO)C(=O)N[C@@H](CC(C)C)C(=O)N[C@@H](Cc1c[nH]cn1)C(=O)N[C@@H](CO)C(=O)NCC(=O)N[C@@H](CS)C(=O)N[C@@H](CS)C(=O)O)[C@@H](C)CC [Peptide 1136.38] |  |  |  |  |  |  |  |  |  |  |  |  |  |  |  |  |  |  |  |  | Total Alleles Bound [1]: 6
2 | LFHYYFLSEKAPGSTV [Peptide 1136.04] | > 10000 | > 1000 | > 1000 | 24 | < 1000 | 55 | 3330 | > 1000 | > 10000 | > 10000 | > 1000 | < 1000 | 1260 | > 1000 | 563 | 2880 | > 1000 | 69 |  |  | IC50 (DRB1*0802 (DR8w2); Binding Capacity (IC 50% nM) Other Alleles DR8w2): < 1000 nM; IC50 (DRB1*0401 (DR4w4); [14]): 20 nM; IC50 (DRB1*0405 (DR4w15); [18]): < 1000 nM; IC50 (DRB5*0101 (DR2w2a); [19]): < 1000 nM; IC50 (DRB1*1101 (DR5w11); Binding Capacity (IC 50% nM) Other Alleles DR5w11): < 1000 nM
3 | LWWSTMYLTHHYFVDL [Peptide 1136.46] | > 10000 | > 1000 | > 1000 |  | < 1000 | > 10000 | 5810 | > 1000 | > 10000 | > 10000 | > 1000 | < 1000 | > 10000 | > 1000 | > 10000 | > 10000 | > 1000 | > 10000 | > 1000 | > 1000 | IC50 (DRB1*0401 (DR4w4); [14]): 985 nM; IC50 (DRB1*0405 (DR4w15); [24]): > 1000 nM; IC50 (DRB5*0101 (DR2w2a); [25]): > 10000 nM; IC50 (DRB5*0101 (DR2w2a); [26]): > 1000 nM
4 | QEIDPLSYNYIPVNSN [Peptide 1136.55] | > 10000 | > 1000 | > 1000 |  | < 1000 | > 10000 | 2450 | > 1000 | > 10000 | 5000 | > 1000 | < 1000 | > 10000 | > 1000 | 271 | > 10000 | > 1000 | 4540 | > 1000 | > 1000 | IC50 (DRB1*0405 (DR4w15); [18]): < 1000 nM; IC50 (DRB5*0101 (DR2w2a); [25]): > 10000 nM; IC50 (DRB5*0101 (DR2w2a); [26]): > 1000 nM
5 | RVYQEPQVSPPQRAET [Peptide 1136.59.01a] | > 10000 | > 1000 | > 1000 | 130 | < 1000 | > 10000 | > 10000 | > 1000 | > 10000 | > 10000 | > 1000 | < 1000 | > 10000 | > 1000 | 3140 | > 10000 | > 1000 | > 10000 | > 1000 | > 1000 | IC50 (DRB1*0405 (DR4w15); [24]): > 1000 nM; IC50 (DRB5*0101 (DR2w2a); [19]): < 1000 nM
6 | WLFPRFKFVWVTYASW [Peptide 1136.44.01] | > 10000 | > 1000 | > 1000 | 526 | < 1000 | 6360 | > 10000 | > 1000 | > 10000 | > 10000 | > 1000 | < 1000 | > 10000 | > 1000 | 6550 | > 10000 | > 1000 | 4000 | > 1000 | > 1000 | IC50 (DRB1*0401 (DR4w4); [14]): 780 nM; IC50 (DRB1*0405 (DR4w15); [24]): > 1000 nM; IC50 (DRB5*0101 (DR2w2a); [25]): > 10000 nM; IC50 (DRB5*0101 (DR2w2a); [26]): > 1000 nM
